Experimental data taken from US20180021467A1, “METHOD OF BLOCKING PERCEPTION OF MALODOR” (Monell Chemical Senses Center, priority 2015, published 2018).
Where two headings read alike, the source gives them in different places.

Columns and labels:
[1] = target: T1, TAAR5 (Homo sapiens, UniProt O14804); experiment: Antagonist screen of odor library on TAAR5 with agonist TMA (Dual-Glo luciferase assay, Hana3A cells); assay type: cell-based; design: TAAR open reading frames were amplified from pooled human genomic DNA using Phusion polymerase and subcloned into a pCI expression vector; Rho tag (first 20 residues of human rhodopsin); expressed in transfected cells; host or cells: Hana3A cells; settings: for inhibition at 30 µM: read-out: Percent Inhibition
T1 sequence (O14804 1-337): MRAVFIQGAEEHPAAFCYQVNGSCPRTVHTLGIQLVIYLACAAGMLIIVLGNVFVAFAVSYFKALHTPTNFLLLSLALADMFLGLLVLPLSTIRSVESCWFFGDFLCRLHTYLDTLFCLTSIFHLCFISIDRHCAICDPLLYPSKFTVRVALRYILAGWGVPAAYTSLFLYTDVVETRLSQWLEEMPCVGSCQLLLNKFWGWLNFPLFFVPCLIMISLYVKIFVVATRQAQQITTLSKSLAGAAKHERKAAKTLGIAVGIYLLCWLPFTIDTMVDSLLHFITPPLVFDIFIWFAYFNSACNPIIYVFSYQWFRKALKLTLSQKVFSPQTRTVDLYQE
Method: We screened a TAAR of interest, TAAR5, with the agonist TMA added at the EC80 concentration, against a proprietary small-molecule library to identify antagonists. TAAR open reading frames were amplified from pooled human genomic DNA using Phusion polymerase and subcloned into a pCI expression vector (Promega) containing the first 20 residues of human rhodopsin (Rho tag). […] Hana3A cells were transfected with 5 ng/well of RTP1S, 5 ng/well of pRL-SV40, 10 ng/well of CRE-luciferase, 2.5 ng/well of M3, and 5 ng/well of odorant receptor. 1M odorant stocks were diluted in DMSO. 24 hours following transfection, transfection media was removed and replaced with the appropriate concentration of odor diluted from the 1M stocks in CD293 (Gibco). Four hours following odor stimulation luminescence was measured using a Synergy 2 plate reader (Biotek). All luminescence values were divided by the Renilla Luciferase activity to control for transfection efficiency in a given well.
We completed an antagonist screen of a proprietary library of odors, including the 52 odorous compounds identified in FIG. 4 at a concentration of 30 μM.

[2] = tested on: human perception of TMA odor ("fishy"); experiment: Human perceptual ratings of fishiness of TMA with antagonist or control odor (air-dilution olfactometer); assay type: in vivo; settings: human subjects, TMA 3 mM, 1 mM, 0.33 mM, odors intensity-balanced to 1 mM TMA
Method: We evaluated the efficacy of the in vitro antagonists on human perception. We asked 10 (FIG. 5A) or 29 (FIG. 5B) subjects to rate how “fishy” and how “pleasant” an odor was. The odors were delivered to the subject using an air-dilution olfactometer (Lundström, J. N., et al., 2010 International Journal of Psychophysiology, 78(2), 179-189; doi:10.1016/j.ijpsycho.2010.07.007) and each trial consisted of one concentration of trimethylamine (either 3 mM, 1 mM, 0.33 mM, or a water blank) combined with either an antagonist or a solvent blank. Subjects used a general labeled magnitude scale to rate how “fishy” the odor smelled and a scale from −10 to +10 to rate the pleasantness.
The antagonists and control odors were intensity-balanced to match the 1 mM concentration of TMA. Trans-2-nonen-1-ol was diluted in Diethyl phthalate (DEP); TMA was diluted in water with NaOH added; Linalool was diluted in DEP. In all trials subjects received air from jars containing water and DEP so that solvent presence could not be used as a cue to the presence of the test odor.

[3] = target: T1, TAAR5; experiment: Dose responses on TAAR5 in luciferase assay (antagonist dose-dependent inhibition with TMA at EC80; TMA dose response with antagonist at IC10, IC30, IC50); assay type: cell-based; design: TAAR open reading frames were amplified from pooled human genomic DNA using Phusion polymerase and subcloned into a pCI expression vector; Rho tag (first 20 residues of human rhodopsin); expressed in transfected cells; host or cells: Hana3A cells; settings: for IC10 concentration of antagonist: lowest of the three concentrations in FIG. 2; for IC30 concentration of antagonist: middle of the three concentrations in FIG. 2
From the text: We screened a TAAR of interest, TAAR5, with the agonist TMA added at the EC80 concentration, against a proprietary small-molecule library to identify antagonists. TAAR open reading frames were amplified from pooled human genomic DNA using Phusion polymerase and subcloned into a pCI expression vector (Promega) containing the first 20 residues of human rhodopsin (Rho tag). The sequences of the cloned receptors were verified by sequencing (3730xl Sequencer, ABI Biosystems). We used the Dual-Glo™ Luciferase Assay System (Promega) to measure receptor responses as previously described in Trimmer, C. et al 2014 High-throughput Analysis of Mammalian Olfactory Receptors: Measurement of Receptor Activation via Luciferase Activity. Journal of Visualized Experiments, (88). doi:10.3791/51640. Hana3A cells were transfected with 5 ng/well of RTP1S, 5 ng/well of pRL-SV40, 10 ng/well of CRE-luciferase, 2.5 ng/well of M3, and 5 ng/well of odorant receptor. 1M odorant stocks were diluted in DMSO. 24 hours following transfection, transfection media was removed and replaced with the appropriate concentration of odor diluted from the 1M stocks in CD293 (Gibco). Four hours following odor stimulation luminescence was measured using a Synergy 2 plate reader (Biotek). All luminescence values were divided by the Renilla Luciferase activity to control for transfection efficiency in a given well.
In a secondary experiment, we ran dose dependent inhibition responses for the top twelve antagonists, i.e., the top 12 compounds identified in FIG. 4. TMA was kept at the EC80 (500 μM) and the twelve antagonists were diluted in a dose response with the highest concentration at 1000 μM. The top five candidate compounds, i.e., phenethyl benzoate, trans-2-nonen-1-ol, isoeugenyl phenlacetate, tributyl-2-acetylcitrate, bis(2-methyl-3-furyl)disulfide, were rescreened using an antagonist dose response at 2500 μM. We determined the IC80 values for those five antagonists. Using those IC80 values, we completed a 3-fold dilution dose response of TMA, starting at 3000 μM, in the presence of our five candidate antagonists. […] It was difficult to determine if the five antagonists were competitive or non-competitive inhibitors using the very high IC80 concentrations of the antagonists.
In another experiment, we evaluated dose responses of TMA in the presence of the antagonist at their IC10, IC30 and IC50 concentrations.

[4] = inhibition of TMA/TAAR5 response, test odor at 30 μM, TMA at EC80
[5] = TAAR5 luciferase, vs TMA, highest of the three concentrations in FIG. 2, read-out: IC50 concentration of antagonist

Row | Molecule | inhibition at 30 µM [1, 4] [%] | also measured
1 | CC/C=C/CC/C=C/C=O [Trans, trans-2,6-Nonadienal] | 71.4 | 
2 | O=C1CCCCCCC/C=C/CCCCCCO1 [Isoambrettolide] | 78.7 | 
3 | C=CC(C)(O)CCC=C(C)C (stereo not drawn) [linalool, reference compound] |  | effect on perceived fishy rating of TMA [2]: no effect on these fishy ratings; effect on perceived fishy rating of TMA ([2]; listed as Linalool): does not; in vitro antagonism ([1]; hTAAR5): did not show in vitro antagonism
4 | Cc1occc1SSc1ccoc1C [Bis(2-Methyl-3-furyl) disulfide] | 88.3 | IC50 [3, 5]: 158 µM; IC10 concentration of antagonist ([3]; TAAR5 luciferase, vs TMA): 31.62 µM; IC30 concentration of antagonist ([3]; TAAR5 luciferase, vs TMA): 77.62 µM
5 | C/C=C(\C=O)c1ccccc1 [2-Phenyl-2-butenal] | 68.9 | 
6 | CSCCC=O [3-(Methylthio)propionaldehyde] | 54.5 | 
7 | OC1CSC(O)CS1 (stereo not drawn) [2,5-Dihydroxy-1,4-dithiane] | 67.9 | 
8 | O=C(Cc1ccccc1)OCCc1ccccc1 [Phenethyl phenylacetate] | 88.9 | 
9 | CCCCCC/C=C/C(C)=O [3-Decen-2-one] | 72.5 | 
10 | O=C(Cc1ccccc1)OCc1ccccc1 [Benzyl phenylacetate] | 72.7 | 
11 | C[C@@]12C=CC[C@H]1[C@@H]1CCC3=CC(=O)CC[C@]3(C)[C@H]1CC2 [Androstadienone, Androsta-4,16-dien-3-one] | 76 | 
12 | CCCCCC(C=O)=Cc1ccccc1 [Alpha-Amylcinnamaldehyde] | 75.8 | 
13 | Nc1ccccc1C(=O)OCCc1ccccc1 [Phenethyl anthranilate] | 92.8 | 
14 | Cc1ccc(C(C)C)cc1O [Carvacrol] | 52.2 | 
15 | CC(C)=CCC/C(C)=C/CO [geraniol] | 81.3 | 
16 | O=C(Cc1ccccc1)Cc1ccccc1 [1,3-Diphenyl-2-propanone] | 73.1 | 
17 | CCCCCCCCCCCCCCO [1-Tetradecanol] | 54.1 | 
18 | CC(C)COC(=O)c1ccccc1 [Isobutyl benzoate] | 63.3 | 
19 | CCCCCCC/C=C/C=O [2-decenal] | 66.4 | 
20 | CC/C=C\CCC=O [cis-4-Heptenal] | 61.5 | 
21 | O=CC1CCCCCC1 [Cycloheptanecarbaldehyde] | 64.4 | 
22 | O=C(OCc1ccccc1)c1ccccc1 [Benzyl benzoate] | 83.9 | 

Row | Molecule | inhibition at 30 µM [1, 4] [%] | also measured
23 | CC(=O)C1(C)CC2=C(CCCC2(C)C)CC1C (stereo not drawn) [iso E super, isocyclemone E] | 69.6 | 
24 | COC(=O)c1ccccc1/N=C/CC(C)CCCC(C)(C)O (stereo not drawn) [aurantiol] | 79.6 | 
25 | SCc1ccccc1 [Benzyl mercaptan] | 75.8 | 
26 | COc1ccc2cc(CCC(C)=O)ccc2c1 [Nabumetone] | 73.8 | 
27 | OCc1ccccc1 [benzyl alcohol] | 62.5 | 
28 | CCCCCCCCCCCCCC(=O)O [myristic acid] | 59.1 | 
29 | O=C(OCc1ccccc1)c1ccccc1O [Benzyl salicylate] | 74.2 | 
30 | CC(C)CCCC(C)CCO (stereo not drawn) [3,7-Dimethyl-1-octanol] | 57.1 | 
31 | CC(C=O)Cc1ccc2c(c1)OCO2 (stereo not drawn) [2-Methyl-3-(3,4-methylenedioxyphenyl)-propanal] | 50.1 | 
32 | CCCCCCCCCCCC(=O)O [Lauric acid] | 86 | 
33 | O=C(OCCc1ccccc1)c1ccccc1O [Phenethyl salicylate] | 85 | 
34 | C=CCN=C=S [Allyl isothiocyanate] | 77.4 | 
35 | CC1COCc2cc3c(cc21)C(C)(C)C(C)C3(C)C (stereo not drawn) [Galaxolide] | 71.2 | 
36 | CCCCCC=O [Hexanal] | 69.4 | 
37 | C/C=C/c1ccc(OC(=O)Cc2ccccc2)c(OC)c1 [Isoeugenyl phenylacetate] | 89.1 | effect on perceived fishy rating of TMA ([2]; listed as Isoeugenyl Phenylacetate): showed a similar pattern; effect on perceived fishy rating of TMA ([2]; listed as isoeugenyl phenylacetate): decreases fishy intensity; IC50 [3]: 703 µM; IC10 concentration of antagonist ([3]; TAAR5 luciferase, vs TMA): 100 µM; IC30 concentration of antagonist ([3]; TAAR5 luciferase, vs TMA): 316.22 µM
38 | Tributyl-2-Acetylcitrate |  | Percent Inhibition [1, 4]: 87.83%; IC50 [3, 5]: 242 µM; IC10 concentration of antagonist ([3]; TAAR5 luciferase, vs TMA): 74.14 µM; IC30 concentration of antagonist ([3]; TAAR5 luciferase, vs TMA): 194.98 µM
39 | O=C(OCCc1ccccc1)c1ccccc1 [Phenethyl benzoate] | 93.5 | IC50 [3, 5]: 479 µM; IC10 concentration of antagonist ([3]; TAAR5 luciferase, vs TMA): 50.11 µM; IC30 concentration of antagonist ([3]; TAAR5 luciferase, vs TMA): 251.19 µM
40 | O=C1CCCCCCCCCCCCCCO1 [Thibetolide] | 81 | 
41 | CCc1occc(=O)c1O [ethyl maltol, 2-Ethyl-3-hydroxy-4H-pyran-4-one] | 72.5 | 
42 | O=C1CCCC=CCCCCCCCCCC1 [velvione, 5-Cyclohexadecen-1-one] | 76 | 
43 | O=C(OCCc1ccccc1)c1ccco1 [Phenethyl 2-furoate] | 59.6 | 
44 | c1ccc(CSSCc2ccccc2)cc1 [Benzyl disulfide] | 81 | 
